This passage reports viability results from publication PMC12040169 (PLOS Biology, 2025).

This series in a line: in vitro. Particulars: human, hela cells, % viability.
With `Cc1ccnc(SCCn2c(N(C)Cc3ccccc3)nc3c2c(=O)n(C)c(=O)n3C)n1` [CBK269394], the viability (in general, a read-out of living cells in per cent, often relative to untreated cells) at 28.5 h, 10 µM was 98.9%. Consider `COCCN(Cc1cc2cccc(C)c2nc1O)S(C)(=O)=O` [CBK269395], for which the viability at 28.5 h, 10 µM is 99.9%. As for `CCCN1CCN(c2ncnc3sc(C4COc5ccccc5O4)cc23)CC1` (stereo not shown) [CBK269396], the figure is 98.1%. The figure for `COc1ccc(N2CCN(CC(=O)N3c4ccccc4Sc4ccccc43)CC2)cc1` [CBK269398] is 89.1%; for `Cc1cc(C)n(-c2nc3ccccc3nc2N2CCN(S(=O)(=O)c3ccccc3)CC2)n1` [CBK269399] it is 79.9%. As for `COC(=O)c1ccccc1NC(=O)CC1Sc2ccccc2NC1=O` (stereo not shown) [CBK269400], the figure is 90.2%; as for `COc1ccc(-c2coc3c(C)c4oc(=O)c(CC(=O)O)c(C)c4cc23)cc1` [CBK269403], 105%.

For `O=C(CCNS(=O)(=O)c1ccc(Cl)cc1)N1CCN(Cc2ccccc2)CC1` [CBK269405], the viability at 28.5 h, 10 µM was determined as 101%. As for `O=C(O)Cc1ccc(NC(=O)C2Cc3ccccc3C(=O)O2)cc1` (stereo not shown) [CBK269406], the figure is 85.1%. The figure for `O=C(COc1nc2cc3c(nc2o1)CCC3)c1ccccc1` [CBK269407] is 75.5%; for `Cc1ccc2cc(CN(Cc3ccco3)S(C)(=O)=O)c(O)nc2c1` [CBK269409] it is 105%.

For `Cc1cc(OCC(=O)Nc2ccccc2N2CCN(S(C)(=O)=O)CC2)ccc1Cl` [CBK269410], the viability at 28.5 h, 10 µM was found to be 103%. As for `CC1Oc2ccccc2OC1C(=O)Nc1ccc([N+](=O)[O-])cc1Cl` (stereo not shown) [CBK269412], the figure is 85.8%; as for `CCN1CCN(Cc2nc3c([nH]2)c(=O)n(C)c(=O)n3C)CC1` [CBK269413], 90.5%; as for `CN(C)CCCNc1ccc(C(F)(F)F)cn1` [CBK269414], 86.2%. The figure for `O=C(CCCc1nc(-c2ccc(Cl)cc2)no1)NCc1cccnc1` [CBK269415] is 90.4%; for `Cc1ccc(S(=O)(=O)N2CCN(CCC(=O)O)CC2)cc1C` [CBK269416] it is 93.3%; for `Cc1ccc2nsnc2c1NC(=O)COc1ccccc1F` [CBK269420] it is 105%. As for `O=C(CS(=O)(=O)c1ccccc1)Nc1ccc(OCc2ccccc2)cc1` [CBK269421], the figure is 98.4%; as for `CCN1CCN(CC(=O)C(C#N)c2ccccc2)CC1` (stereo not shown) [CBK269423], 92.8%. Consider `O=S(=O)(c1ccccc1)N(Cc1cc2ccccc2nc1O)CC1CCCO1` (stereo not shown) [CBK269424], for which the viability at 28.5 h, 10 µM was 93.3%. As to `CCN(CC(=O)Nc1ccccc1OC)S(=O)(=O)c1ccccc1` [CBK269428], the viability at 28.5 h, 10 µM was determined as 97.1%. As for `O=C(O)COc1noc2nc3c(cc12)CCCCC3` [CBK269429], the figure is 97.7%. The figure for `Cc1ccc(-c2noc(CN(C(=O)c3ccc(Br)o3)C(C)C)n2)cc1` [CBK269440] is 83.2%; for `COc1ccc(S(=O)(=O)NC(C)C(=O)NCc2ccncc2)cc1` (stereo not shown) [CBK269441] it is 107%; for `COC(=O)Cn1c(CN2CCN(c3ccccc3F)CC2)nc2c1c(=O)n(C)c(=O)n2C` [CBK269444] it is 93.1%.

For the compound `O=C(NCCN1CCOCC1)NC(=O)c1ccc(Cl)cc1` [CBK269446], the viability at 28.5 h, 10 µM came out at 88.2%. Take `COC(=O)c1c(NC(=O)CC2NCCNC2=O)sc(C)c1C` (stereo not shown) [CBK269447]: the viability at 28.5 h, 10 µM came out at 92.1%. As for `CC1CN(Cc2nc3c(c(=O)[nH]c(=O)n3C)n2Cc2cccc(Cl)c2)CC(C)O1` (stereo not shown) [CBK269450], the figure is 105%; as for `CCCc1cc(C(=O)OC)c(NC(=O)CC2Nc3ccccc3NC2=O)s1` (stereo not shown) [CBK269451], 107%; as for `CN1CCN(c2nc3c(c(=O)n(C)c(=O)n3C)n2CCSc2nc3ccccc3o2)CC1` [CBK269452], 90%.

As for `CCOC(=O)Cn1c(CN2CCC(Cc3ccccc3)CC2)nc2c1c(=O)n(C)c(=O)n2C` [CBK269454], the viability at 28.5 h, 10 µM is 89.8%.

Take `N#Cc1nc(/C=C/c2cccs2)oc1NCCCn1ccnc1` [CBK269455]: the viability at 28.5 h, 10 µM is 84.1%. The figure for `COc1cc(Cl)c(C)cc1NC(=O)c1ncn(-c2ccccc2)n1` [CBK269456] is 101%; for `Cc1cccc(/C(C#N)=C\c2cn(CC(=O)O)c3ccccc23)c1` [CBK269457] it is 110%. As for `Cc1cc(Nc2ccccc2C)c2cc(C(=O)O)ccc2n1` [CBK269458C], the figure is 103%. As for `O=C(NCc1ccco1)NC(=O)c1ccc(Cl)cc1` [CBK269461], the figure is 95.8%; as for `COc1ccc(NC(=O)NC(=O)c2ccc(Cl)cc2)c(OC)c1` [CBK269462], 93.1%; as for `FC(F)(F)c1cccc(OCc2nnn[nH]2)c1` [CBK269466], 88.4%.

In the case of `O=C(CSc1nc(O)cc(O)n1)Nc1ccc(I)cc1` [CBK269467], the viability at 28.5 h, 10 µM was 103%.

Turning to `CS(=O)(=O)c1ccccc1S(=O)(=O)N1CCN(c2nc3ccccc3s2)CC1` [CBK269468], the viability at 28.5 h, 10 µM was determined as 97.7%. The figure for `Cn1c(=O)[nH]c(=O)c2c1nc(SCCN1CCCCC1)n2CCCc1ccccc1` [CBK269469] is 91.7%; for `CC12CCC(C(=O)O)(c3nc4c(ccc5ncccc54)nc31)C2(C)C` (stereo not shown) [CBK269470] it is 91.1%; for `COc1cc(NC(=O)CS(=O)(=O)c2ccccc2)c(OC)cc1Cl` [CBK269471] it is 86.7%. `Clc1ccc(OCc2n[nH]c(-c3ccccn3)n2)cc1` [CBK269472]: the viability at 28.5 h, 10 µM was found to be 90.2%.

As for `Fc1ccc(OCc2nnn[nH]2)c(F)c1` [CBK269473], the viability at 28.5 h, 10 µM came out at 99.9%.

Turning to `Cc1ccc(SCC(=O)NCc2nc(-c3ccccc3)no2)cc1` [CBK269474], the viability at 28.5 h, 10 µM was found to be 102%.

Turning to `NC(=O)COc1ccc(/C=C/c2cc(C(F)(F)F)[nH]c(=O)n2)cc1` [CBK269475], the viability at 28.5 h, 10 µM is 90.6%.

For the compound `N#Cc1c(NC(=O)CSc2ncnc3c2cnn3-c2ccccc2)sc2c1CCCC2` [CBK269478], the viability at 28.5 h, 10 µM stood at 92.6%.

Consider `COc1ccc(S(=O)(=O)NC(C)C(=O)Nc2cc(Cl)ccc2OC)cc1` (stereo not shown) [CBK269479], for which the viability at 28.5 h, 10 µM amounted to 104%. As for `O=C(NCc1cccnc1)C(=O)Nc1ccc(F)cc1F` [CBK269481], the figure is 101%; as for `Cc1ccc(NC(=O)Nc2ccc(F)cc2)cc1S(=O)(=O)N(C)C` [CBK269482], 92.8%.

Consider `CC(C)(C)Nc1nc(OCC#N)nc(N2CCCCC2)n1` [CBK269483], for which the viability at 28.5 h, 10 µM stood at 97.2%. As for `CS(=O)(=O)c1ncc(Cl)c(C(=O)N(Cc2ccccc2)c2ccccn2)n1` [CBK269489], the figure is 95%; as for `O=S(=O)(Nc1ccccn1)N1CCCCC1` [CBK269490], 92.3%; as for `Cc1c(C(=O)Nc2sc3c(c2C(=O)NCc2cccnc2)CCC3)oc2ccccc12` [CBK269491], 87.8%.

With `COc1ccc(C)cc1S(=O)(=O)N(C)CC(=O)Nc1cccc(Cl)c1` [CBK269493], the viability at 28.5 h, 10 µM came to 88.5%.

With `c1ccc2c(OCc3nnn[nH]3)cccc2c1` [CBK269495], the viability at 28.5 h, 10 µM was determined as 103%.
